Like-named read-outs stand apart in the source and are kept apart here.
What was measured:
[1] = molecular target: T1, SETD2(1434-1711) (Homo sapiens, UniProt Q9BYW2); assay: SETD2 (1434-1711) assay; format: biochemical; conditions: read-out: SETD2 (1434-1711)
T1 construct: SETD2 (1434-1711) Assay; catalogue N/A
T1 sequence (Q9BYW2 1434-1711): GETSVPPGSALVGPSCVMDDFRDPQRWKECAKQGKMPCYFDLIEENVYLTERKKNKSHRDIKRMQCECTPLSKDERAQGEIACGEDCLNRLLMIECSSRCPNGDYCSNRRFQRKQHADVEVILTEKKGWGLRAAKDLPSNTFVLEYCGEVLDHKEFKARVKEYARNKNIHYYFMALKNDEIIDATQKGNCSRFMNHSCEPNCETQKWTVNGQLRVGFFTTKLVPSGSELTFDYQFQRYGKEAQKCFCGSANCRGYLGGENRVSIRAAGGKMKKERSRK

[2] = tested on: H3K36me3 in A549 cells; assay: In-Cell Western (ICW) assay of SETD2 inhibitors (A549 assay); format: cell-based, human; conditions: A549 cells, read-out: SETD2 A549
How it was run: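 A549 cells seeded at 4,000/well onto compound and incubated 3 days at 37° C. Methanol-fixed cells stained overnight at 4° C with anti-H3K36me3 (1:1000), then IRDye 800CW secondary with DRAQ5 DNA counterstain. Plates read by Licor imaging at 700 and 800 channels.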

| Compound | IC50 [1] [nM] | IC50 ([2]; Homo sapiens) [nM] | IC50 [2] [nM] |
| --- | --- | --- | --- |
| Cc1cc(Cn2cc[nH]c2=O)cnc1C(NC(=O)c1cc2c(F)ccc(C)c2[nH]1)C1CC1 (stereo not drawn) [compound 273] | 200 | 800 | – |
| Cc1cccc2cc(C(=O)NC3CCNC(=O)c4ccccc43)[nH]c12 (stereo not drawn) [compound 620] | > 200000 | – | > 25000 |
| Cc1ccc(F)c2cc(C(=O)NC3CCCC(N4CCN(C(=O)OC(C)C)CC4)C3)[nH]c12 (stereo not drawn) [compound 998] | 1500 | – | > 2000 |
| Cc1ccc(F)c2cc(C(=O)N[C@@H]3CCC[C@@H](N4CCN5C(=O)OCC5C4)C3)[nH]c12 (stereo partly drawn) [compound 866] | 900 | > 2000 | – |
| Cc1cccc2cc(C(=O)NC(c3cccc4c3NC(=O)C4)C3CC3)[nH]c12 (stereo not drawn) [compound 564] | 10900 | > 25000 | – |
| Cc1ccc(F)c2cc(C(=O)Nc3cccc(-c4nncn4C)c3)[nH]c12 [compound 237] | 100 | – | 600 |
| Cc1ccc(F)c2cc(C(=O)N[C@H]3CCC[C@H](c4cccnc4)C3)[nH]c12 [compound 904] | 8100 | > 2000 | – |
| Cc1ccc(F)c2cc(C(=O)NC3CCCC(N4CCN5C(=O)OCC5C4)C3)[nH]c12 (stereo not drawn) [compound 1135] | 20 | – | 70 |
| CCNCC1CN(c2cccc(NC(=O)c3cc4c(F)ccc(C)c4[nH]3)c2)CCO1 (stereo not drawn) [compound 203] | 10 | – | 400 |
| Cc1ccc(F)c2cc(C(=O)Nc3cccc(N4CC5CN(C)CC5C4)c3)[nH]c12 (stereo not drawn) [compound 165] | 10 | 300 | – |
| Cc1ccc(F)c2cc(C(=O)Nc3cc(F)cc([C@H]4CC[C@H](N5CCOCC5)CC4)c3)[nH]c12 [compound 353] | 100 | – | > 2000 |
| Cc1ccc(F)c2cc(C(=O)Nc3cccc4cccnc34)[nH]c12 [compound 609] | > 50000 | – | > 25000 |
| Cc1ccc(F)c2cc(C(=O)Nc3cccc(N4CCN(C)C(C(F)(F)F)C4)c3)[nH]c12 (stereo not drawn) [compound 229] | 100 | – | 500 |
| Cc1ccc(F)c2cc(C(=O)N[C@@H]3CCC[C@@H](N4CCN(C(=O)C5COC5)CC4)C3)[nH]c12 [compound 919] | 900 | > 2000 | – |
| CC(=O)N1CCN(C2CCN(c3cc(F)cc(NC(=O)c4cc5c(F)ccc(C)c5[nH]4)c3)C2)CC1 (stereo not drawn) [compound 9] | 8 | – | 40 |
| Cc1ccc(F)c2cc(C(=O)Nc3cccc(N4CCC(Nc5cccnc5)CC4)c3)[nH]c12 [compound 157] | 50 | 300 | – |
| Cc1ccc(F)c2cc(C(=O)Nc3cc(Cl)cc(N4CCC(CCCN5CCCC5)CC4)c3)[nH]c12 [compound 1158] | 6 | – | 900 |
| Cc1ccc[n+]([O-])c1C(NC(=O)c1cc2cccc(C)c2[nH]1)C1CC1 (stereo not drawn) [compound 576] | 18600 | > 25000 | – |
| CC(=O)N1CCN(C2CCCC(NC(=O)c3cc4c(F)ccc(C)c4[nH]3)C2)C2(CC2)C1 (stereo not drawn) [compound 1137] | 2000 | – | > 2000 |
| Cc1cccc2cc(C(=O)NC3CC(=O)NCC(c4ccccc4)C3)[nH]c12 (stereo not drawn) [compound 617] | > 200000 | – | > 25000 |

| Compound | IC50 [1] [nM] | IC50 ([2]; Homo sapiens) [nM] | IC50 [2] [nM] |
| --- | --- | --- | --- |
| Cc1cccc2cc(C(=O)NCc3ccccc3N3CCOCC3)[nH]c12 [compound 575] | > 18000 | > 25000 | – |
| Cc1cccc2cc(C(=O)NC(CN(C)C)c3cccnc3)[nH]c12 (stereo not drawn) [compound 603] | > 50000 | – | > 25000 |
| CN[C@H]1CCN([C@@H]2CCC[C@@H](NC(=O)c3cc4c(F)ccc(C)c4[nH]3)C2)C1 [compound 1088] | 2200 | > 2000 | – |
| CC(=O)N1[C@H](C)CN([C@@H]2CCC[C@@H](NC(=O)c3cc4c(F)ccc(C)c4[nH]3)C2)C[C@@H]1C [compound 1096] | 2400 | > 2000 | – |
| Cc1ccc(F)c2cc(C(=O)NC3CCCC(N4CCN5C(=O)CN(C)C(=O)C5C4)C3)[nH]c12 (stereo not drawn) [compound 1103] | 100 | – | 100 |
| Cc1ccc(F)c2cc(C(=O)Nc3cc(F)cc(N4CCC(N5CCN(C(=O)CN(C)C)CC5)C4)c3)[nH]c12 (stereo not drawn) [compound 39] | 4 | – | 90 |
| CCN(C(=O)CO)C1CCN(C2CCCC(NC(=O)c3cc4c(F)ccc(C)c4[nH]3)C2)C1 (stereo not drawn) [compound 1120] | 5900 | – | > 2000 |
| Cc1cccc2cc(C(=O)Nc3cccc(CN4CCOCC4)c3)[nH]c12 [compound 478] | 4100 | 9400 | – |
| Cc1ccc(F)c2cc(C(=O)N[C@H]3CCC[C@@H](c4cncnc4)C3)[nH]c12 [compound 131] | 100 | 300 | – |
| Cc1ccc(F)c2cc(C(=O)Nc3cccc(N4CCC5(CCNCC5)C4)c3)[nH]c12 [compound 189] | 6 | 400 | – |
| Cc1ccc(F)c2cc(C(=O)Nc3cc(F)cc(N4CCC(N5CCOC(CO)C5)C4)c3)[nH]c12 (stereo not drawn) [compound 16] | 10 | – | 50 |
| Cc1ccc(F)c2cc(C(=O)NC3CCCC(N4CCC5(CCC(=O)N5CC(F)(F)F)CC4)C3)[nH]c12 (stereo not drawn) [compound 966] | 600 | – | > 2000 |
| COCC(=O)N(C)C1CCN(C2CCCC(NC(=O)c3cc4c(F)ccc(C)c4[nH]3)C2)C1 (stereo not drawn) [compound 1160] | 4300 | – | > 2000 |
| Cc1ccc(F)c2cc(C(=O)Nc3cccc4c3cnn4C3CCN(C)CC3)[nH]c12 [compound 247] | 50 | 600 | – |
| Cc1ccc(F)c2cc(C(=O)Nc3cc(F)cc([C@H]4CC[C@@H](N(C)C)CC4)c3)[nH]c12 [compound 69] | 3 | – | 200 |
| Cc1cccc2cc(C(=O)N[C@@H]3CCN(C(=O)CCCN)C[C@@H]3C)[nH]c12 [compound 588] | 40400 | > 25000 | – |
| Cc1ccc(F)c2cc(C(=O)Nc3cccc(N(C)C4CCNCC4)c3)[nH]c12 [compound 325] | 70 | 1500 | – |
| CC(=O)N1CCN(c2cccc(NC(=O)c3cc4c(F)ccc(C)c4[nH]3)c2)CC1C(F)(F)F (stereo not drawn) [compound 77] | 60 | – | 200 |
| Cc1ccc(F)c2cc(C(=O)NC3CCCC(N4CCC(N(C)C(=O)C5CC5)C4)C3)[nH]c12 (stereo not drawn) [compound 972] | 4900 | – | > 2000 |
| Cc1cccc2cc(C(=O)NC3CC(NC(=O)CCN)C3)[nH]c12 (stereo not drawn) [compound 597] | > 50000 | – | > 25000 |

| Compound | IC50 [1] [nM] | IC50 ([2]; Homo sapiens) [nM] | IC50 [2] [nM] |
| --- | --- | --- | --- |
| Cc1ccc(F)c2cc(C(=O)NC3CCCC(N4CCN5C(=O)CCCC5C4)C3)[nH]c12 (stereo not drawn) [compound 1078] | 10 | – | 30 |
| COCCN(C)C1CCN(c2cccc(NC(=O)c3cc4c(F)ccc(C)c4[nH]3)c2)C1 (stereo not drawn) [compound 156] | 30 | 300 | – |
| Cc1ccc(F)c2cc(C(=O)Nc3cccc(N4CC5CCC(C4)C5N(C)C)c3)[nH]c12 (stereo not drawn) [compound 436] | 300 | – | 4700 |
| Cc1ccc(F)c2cc(C(=O)Nc3cc(F)cc(N4CCN(C)C(=O)C4)c3)[nH]c12 [compound 20] | 9 | 60 | – |
| Cc1cccnc1C(NC(=O)c1cc2cccc(CO)c2[nH]1)C1CC1 (stereo not drawn) [compound 574] | 17300 | > 25000 | – |
| Cc1ccc(F)c2cc(C(=O)N[C@@H]3CCC[C@H](N4CC5(CNC(=O)C5)C4)C3)[nH]c12 [compound 897] | 10 | 100 | – |
| Cc1ccc(F)c2cc(C(=O)N[C@@H]3CCC[C@H](c4nccc(=O)[nH]4)C3)[nH]c12 [compound 1013] | 706 | > 2000 | – |
| CC(=O)N1[C@@H](C)CN(c2cccc(NC(=O)c3cc4c(F)ccc(C)c4[nH]3)c2)C[C@@H]1C [compound 298] | 300 | 1100 | – |
| Cc1ccc(F)c2cc(C(=O)N[C@@H]3CCC[C@H](N4CC[C@H](N(C)C)C4=O)C3)[nH]c12 [compound 1090] | 500 | 1100 | – |
| Cc1cc2ccccc2nc1C(NC(=O)c1cc2cccc(C)c2[nH]1)C1CC1 (stereo not drawn) [compound 472] | 900 | – | 8500 |
| Cc1ccc(F)c2cc(C(=O)NC3CCCC(N4CCn5cnnc5C4)C3)[nH]c12 (stereo not drawn) [compound 860] | 100 | – | 1600 |
| CC(=O)N1CCN(C[C@@H]2CCC[C@H](NC(=O)c3cc4c(F)ccc(C)c4[nH]3)C2)CC1 [compound 1077] | > 10000 | > 2000 | – |
| Cc1ccc(F)c2cc(C(=O)NC(C(=O)NCc3ccccc3)c3ccccn3)[nH]c12 (stereo not drawn) [compound 550] | 6500 | – | > 25000 |
| Cc1ccc(F)c2cc(C(=O)NC(C(=O)N3CCOCC3)c3ccccn3)[nH]c12 (stereo not drawn) [compound 560] | > 10000 | > 25000 | – |
| Cc1ccc(F)c2cc(C(=O)Nc3cccc(N4CCC(N5CCC(N)CC5)CC4)c3)[nH]c12 [compound 530] | 7 | – | > 25000 |
| Cc1ccc(F)c2cc(C(=O)NC3CCCC(N4CCN5C(=O)CN(C)C(=O)C5C4)C3)[nH]c12 (stereo not drawn) [compound 1102] | 3900 | – | > 2000 |
| Cc1ccc(F)c2cc(C(=O)Nc3cccc(-c4ncno4)c3)[nH]c12 [compound 296] | 100 | 1100 | – |
| Cc1ccc(F)c2cc(C(=O)Nc3cccc(N4CCC(N(C)CCF)C4)c3)[nH]c12 (stereo not drawn) [compound 97] | 40 | – | 200 |
| Cc1ccc(F)c2cc(C(=O)Nc3cc(Cl)cc(CN4CCOCC4)c3)[nH]c12 [compound 333] | 300 | – | 1600 |
| COC1CN(C2CCN(c3cccc(NC(=O)c4cc5c(F)ccc(C)c5[nH]4)c3)CC2)C1 [compound 155] | 50 | 300 | – |

Source: patent publication US12116358B2, “Substituted indoles and methods of use thereof” (EPIZYME, INC., priority 2018, dated 2024)
